Assay results taken from patent US10786465B2, “Polymer/copolymer nanoparticles conjugated to gambogic acid” (The Texas A&M University System, priority 2015, dated 2020).

Experiments:
TfR = TfR (Homo sapiens, UniProt P02786); test: Sandwich ELISA, binding of fluorescent PLGA-GA/PLGA NS to TfR; conditions: 200 ng of TfR
Procedure: GA has been previously shown to have affinity for TfR, independent of transferrin binding. To evaluate the translation of the avidity of GA for TfR in PLGA-GA NS, a sandwich ELISA method was employed. The initial study involved the determination of the effect of surface GA density of NS in their binding affinity to TfR. […] The total […] of the NS suspension available in the wells without TfR was also measured in order to ensure that the variation in the FI with TfR was caused by the binding of the NS to the receptor.

[1] = described in literature; cited from earlier work
Caco-2 cells = test: Concentration dependent toxicity in Caco-2 cells; type: cell-based; conditions: human
Procedure: Cell death observed in the latter case could be attributed to the cumulative effect of high concentration of polymer and available GA. However, a moderate treatment of 250 μg NS appears to be safe for the cells. The amount of GA present in all the NS in […] was much lower than the established safe dose of 60 mg/kg described in literature.

TfR, sequence (P02786 whole entry, species assumed): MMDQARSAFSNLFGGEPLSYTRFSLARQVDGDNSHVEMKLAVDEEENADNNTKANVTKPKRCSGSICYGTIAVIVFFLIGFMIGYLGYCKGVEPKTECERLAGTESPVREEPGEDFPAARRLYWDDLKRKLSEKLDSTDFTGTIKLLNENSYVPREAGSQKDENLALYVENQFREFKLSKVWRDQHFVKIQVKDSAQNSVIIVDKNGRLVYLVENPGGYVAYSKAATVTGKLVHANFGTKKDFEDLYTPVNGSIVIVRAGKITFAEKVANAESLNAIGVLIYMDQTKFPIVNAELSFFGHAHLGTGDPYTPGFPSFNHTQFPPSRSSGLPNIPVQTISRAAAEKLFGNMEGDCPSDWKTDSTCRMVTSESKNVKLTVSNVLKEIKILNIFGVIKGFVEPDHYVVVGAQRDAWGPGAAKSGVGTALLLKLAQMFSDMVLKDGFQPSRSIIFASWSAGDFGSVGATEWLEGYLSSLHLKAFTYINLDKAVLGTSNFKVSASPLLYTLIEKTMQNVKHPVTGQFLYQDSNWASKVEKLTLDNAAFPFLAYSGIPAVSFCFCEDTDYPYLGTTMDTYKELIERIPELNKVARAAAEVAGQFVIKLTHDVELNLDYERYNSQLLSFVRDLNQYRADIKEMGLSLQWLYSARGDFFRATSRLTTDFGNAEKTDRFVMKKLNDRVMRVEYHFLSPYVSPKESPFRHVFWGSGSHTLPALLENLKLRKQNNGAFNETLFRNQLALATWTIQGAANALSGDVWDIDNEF

Q: What does the source list for `CC(C)=CCC[C@]1(C)C=Cc2c(O)c3c(c(CC=C(C)C)c2O1)O[C@]12C(=C[C@@H]4C[C@H]1C(C)(C)O[C@@]2(C/C=C(/C)C(=O)O)C4=O)C3=O` [GA, gambogic acid]?
A: competition with 2° antibody for TfR (colorimetric TfR levels) (TfR): does not compete with 2° antibody for TfR; established safe dose [1]: 60 mg/kg; cell death (Caco-2 cells; 20 μM): 25%; cell death (Caco-2 cells; 30 μM): 46%
